{
  "source": "paper PMC6874683",
  "about": "“Pyrrothiogatain acts as an inhibitor of GATA family proteins and inhibits Th2 cell differentiation in vitro” (Scientific Reports, 2019)",
  "key": {"GATA3 expression": {"system": "GATA3 expression", "test": "Intracellular staining of GATA3, CD4+ T cells under IL-2 conditions", "format": "cell-based, mouse", "settings": "30 µM, two days", "description": "The in vitro differentiated CD4^+ T cells were stimulated using an immobilized anti-TCR-β mAb (3 µg/ml, H57–597, BioLegend) for 6 h in the presence of monensin (2 µM). The cells were fixed with 4% paraformaldehyde (Cat#163–20145, Wako) and permeabilized with permeabilization buffer (50 mM NaCl, 5 mM EDTA, 0.02% NaN3, and 0.5% Triton X-100). Then, the cells were stained using the following antibodies, anti-IL-4-PE (Cat#504103, BioLegend, 1:50), anti-IL-5-APC (Cat#504305, BioLegend, 1:50), anti-IL-13-PE (Cat#12–7133–41, eBiosience, 1:50), anti-IFN-γ-FITC (Cat#562019, BD Biosciences, 1:500), and anti-IL-2-APC (Cat#503809, BioLegend, 1:50). For the intracellular staining of Gata3, the Foxp3/Transcription Factor Staining Buffer Kit (cat#TNB-0607, TONBO) was used according to the manufacturer’s protocol. Flow cytometry was performed using a Gallios Flow Cytometer instrument (Beckman Coulter) and a FACS Caliber instrument (BD Biosciences) and the results were analysed using the FlowJo software program (Tree Star, Ashland, OR, USA).\n(D) Intracellular staining of GATA3 in CD4+ T cells stimulated with immobilized anti-TCRβ mAb plus anti-CD28 mAb under IL-2 conditions in the presence or absence of pyrrothiogatain (30 µM) for two days."}, "cytokine production": {"system": "cytokine production", "test": "ELISA of cytokine production, total CD4+ T cells under IL-2 conditions", "format": "cell-based, mouse", "settings": "30 µM, five days", "description": "C57BL/6 mice were purchased from Clea (Clea Japan, Inc., Tokyo, Japan). Total CD4^+ T cells isolated from mouse spleen were prepared using a FITC anti-mouse CD4 antibody (Cat#100510, RM4–5, BioLegend) and anti-FITC-microbeads (Cat#130-097-050, Miltenyi Biotec). Naive CD4^+ T cells (CD44^low, CD62L^high) were prepared using a MojoSort Mouse CD4 T cell Isolation Kit (Cat#480033), BioLegend). Biotinylated anti-CD44 (Cat#103004, IM7) and anti-CD25 antibodies (Cat#102004, PC61) were purchased from BioLegend. […]\nThe CD4^+ T cells cultured for five days were stimulated using an immobilized anti-TCR-β mAb (3 µg/mL, H57–597, BioLegend) for 16 h, and the culture supernatants were recovered. The amount of cytokines in the recovered supernatants was determined with ELISA using the following antibodies and reagents: anti-IL-4 mAb (Cat#554387, BD Biosciences), biotin-anti-IL-4 mAb (Cat#554390, BD Biosciences), anti-IL-5 mAb (Cat#554393, BD Biosciences), biotin-anti-IL-5 mAb (Cat#554397, BD Biosciences), anti-IFN-γ mAb (Cat#551216, BD Biosciences), biotin-anti-IFN-γ mAb (Cat#554410, BD Biosciences), anti-IL-2 mAb (Cat#554424, BD Biosciences), biotin-anti-IL-2 mAb (Cat#554426, BD Biosciences), streptavidin horseradish peroxidase (Cat#434323, Invitrogen), and TMB peroxidase EIA substrate kit (Cat#1721066, BioRad). […]"}},
  "data": [
    {"smiles": "Cc1ccc(C)n1-c1ccsc1C(=O)O", "note": "[Pyrrothiogatain, 3-(2,5-dimethyl-1H-pyrrol-1-yl)thiophene-2-carboxylic acid]", "values": [
      {"measurement": "Expression of GATA3, protein level", "setting": "GATA3 expression", "value": "not influenced"},
      {"measurement": "Production of IFN-γ (ELISA)", "setting": "cytokine production", "value": "Increased"},
      {"measurement": "Production of IL-4, IL-5, IL-10, and IL-13 (ELISA)", "setting": "cytokine production", "value": "decreased"}
    ]}
  ]
}
